The record followed here is ChEMBL document CHEMBL1139627, “A new orally bioavailable dual adenosine A2B/A3 receptor antagonist with therapeutic potential” (Bioorg Med Chem Lett, 2005).

As a reminder, the Ki is a dissociation constant, usually derived from enzyme kinetics or from competition with a known ligand. Low readings indicate higher affinity, high ones lower affinity. By clearance is commonly meant the rate of elimination divided by the concentration. Low readings indicate a low capacity for elimination, high ones a high capacity for elimination. The half-life is the time in which the quantity being followed falls by half. Read a high half-life as slow loss. What is called Cmax is the peak of the concentration-time curve. What is called Tmax is the time from dosing to the highest level.

Series [1] deals with T1, Adenosine receptor A2b (Homo sapiens) (UniProt P29275).
T1 sequence (whole entry): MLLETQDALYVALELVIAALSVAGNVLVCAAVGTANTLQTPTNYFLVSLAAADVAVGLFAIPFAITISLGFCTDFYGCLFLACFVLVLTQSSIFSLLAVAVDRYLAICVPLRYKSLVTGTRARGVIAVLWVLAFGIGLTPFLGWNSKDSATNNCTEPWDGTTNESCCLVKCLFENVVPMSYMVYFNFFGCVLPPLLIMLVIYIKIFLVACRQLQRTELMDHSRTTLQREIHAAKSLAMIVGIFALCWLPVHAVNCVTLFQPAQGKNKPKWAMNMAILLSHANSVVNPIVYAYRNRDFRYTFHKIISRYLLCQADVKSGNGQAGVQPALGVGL
The experiment in a line: Inhibition of luciferase production elicited by NECA by compound in CHO cells transfected with human adenosine A2b receptor and a luciferase expressing reporter plasmid in a reporter gene assay. Type of series: cell-based. A general note: In a reporter assay the amount or activity of a reporter protein is the signal.

Series [2] deals with Adenosine receptor A2a (Homo sapiens, UniProt P29274). The experiment in a line: Displacement of [3H]ZM-241,385 from human adenosine A2a receptors transfected in HEK 293 cells. Type of series: cell-based, HEK293. Background: Loss of bound radioactivity is the signal in a displacement assay; it reports binding, not function.
Sequence of Adenosine receptor A2a (P29274 whole entry): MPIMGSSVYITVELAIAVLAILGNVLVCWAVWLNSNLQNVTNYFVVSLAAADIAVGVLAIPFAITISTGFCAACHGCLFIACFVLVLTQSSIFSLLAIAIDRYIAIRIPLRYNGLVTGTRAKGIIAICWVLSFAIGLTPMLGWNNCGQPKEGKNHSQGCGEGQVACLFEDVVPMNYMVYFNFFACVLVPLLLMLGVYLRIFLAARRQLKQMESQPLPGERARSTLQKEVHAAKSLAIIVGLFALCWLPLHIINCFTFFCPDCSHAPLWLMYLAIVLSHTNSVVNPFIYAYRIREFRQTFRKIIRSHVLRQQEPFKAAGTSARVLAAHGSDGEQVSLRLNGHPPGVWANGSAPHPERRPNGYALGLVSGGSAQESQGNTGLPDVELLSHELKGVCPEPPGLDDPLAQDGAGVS
For series [3], the target named is T2, Adenosine receptor A3 (Homo sapiens, UniProt P0DMS8).
T2 sequence (P0DMS8 whole entry): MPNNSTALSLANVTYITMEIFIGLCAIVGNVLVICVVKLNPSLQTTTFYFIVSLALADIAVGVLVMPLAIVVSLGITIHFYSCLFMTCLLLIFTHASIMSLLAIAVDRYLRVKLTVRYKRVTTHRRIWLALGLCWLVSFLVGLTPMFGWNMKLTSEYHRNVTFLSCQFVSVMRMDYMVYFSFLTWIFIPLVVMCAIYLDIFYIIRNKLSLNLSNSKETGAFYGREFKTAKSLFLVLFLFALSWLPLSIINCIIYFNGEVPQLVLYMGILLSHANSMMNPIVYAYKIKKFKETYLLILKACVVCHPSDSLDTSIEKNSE
Put plainly: Displacement of [125I]-AB-MECA from human adenosine A3 receptors transfected in CHO cells. The series is classed as cell-based.

Series [4] concerns the target T3, Adenosine receptor A1 (Homo sapiens, UniProt P30542).
T3 sequence (P30542 whole entry): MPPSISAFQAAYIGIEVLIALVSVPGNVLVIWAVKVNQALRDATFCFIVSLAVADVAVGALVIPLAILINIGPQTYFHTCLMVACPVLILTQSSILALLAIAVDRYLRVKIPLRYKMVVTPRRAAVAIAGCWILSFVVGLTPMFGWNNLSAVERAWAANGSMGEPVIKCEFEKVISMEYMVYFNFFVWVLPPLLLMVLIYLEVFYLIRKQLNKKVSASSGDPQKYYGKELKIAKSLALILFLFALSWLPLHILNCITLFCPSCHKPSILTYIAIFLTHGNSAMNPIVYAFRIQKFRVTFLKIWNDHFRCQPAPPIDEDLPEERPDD
The experiment in a line: Displacement of [3H]DPCPX from human adenosine A1 receptors transfected in CHO cells. Type of series: cell-based.

Series [5] can be described thus: Clearance in wistar rat was determined by intra venous administration of 2:1 PEG200/0.1 M phosphate buffer at 0.1 mL/kg concentration. Type of series: ADME, organism-based. The settings on record: in vivo, iv.
A short description of series [6]: Bioavailability of compound after oral administration at 1 mL/kg concentration in wistar rat. Type of series: ADME, organism-based. The settings on record: in vivo, read-out: BAV.
The nature of series [7]: Half life of trhe compound after oral administration at 1 mL/kg concentration in wistar rat. Type of series: ADME, organism-based. Particulars: in vivo.
Series [8] is described as follows: Volume abserved at study state after intra venous administration of 2:1 PEG200/0.1 M phosphate buffer at 0.1 mL/kg concentration in wistar rat. The series is classed as ADME, organism-based. Particulars: in vivo, iv, read-out: Vss.
Series [9] can be described thus: Maximum concentration in wistar rat at 1 mL/kg concentration of compound after oral administration. The series is classed as ADME, organism-based. Details: dose 1 mL/kg, route oral. The settings on record: in vivo.
Series [10] is described as follows: Time to reach Cmax after oral administration at 1 mL/kg concentration in wistar rat. The series is classed as ADME, organism-based. Particulars: in vivo.
Series [11] can be described thus: Half life in wistar rat was determined by intra venous administration of 2:1 PEG200/0.1 M phosphate buffer at 0.1 mL/kg concentration. The settings on record: in vivo, iv. The series is classed as ADME.

SMILES strings stand for the structures.

With `N#Cc1cccc(-c2nc(Nc3ccncc3)sc2-n2cncn2)c1`, in series [1], the Kb amounted to 62 nM. For the same compound, the inhibitory constant (Ki) worked out at 4160 nM in [2] and 304 nM in series [3].

`CC(=O)Nc1nc(-c2cccc(C#N)c2)c(-n2cncn2)s1` yielded a Kb in series [1] of 365 nM. Further, the inhibition constant Ki in series [2] is 5610 nM; in [4] it was 2840 nM; in series [3], 134 nM.

Turning to `N#Cc1cccc(-c2nc(Nc3cnccn3)sc2-n2cncn2)c1`, in series [1], the Kb turned out to be 12 nM. Besides, the values for the inhibitory constant (Ki) in series [2] and in series [4] were 3580 nM and 2090 nM, respectively.

As to `Cc1nccn1-c1sc(Nc2cnccn2)nc1-c1cccc(C#N)c1`, the clearance in series [5] was determined as 94.4 mL/min/kg. In addition, the Kb in series [1] was determined as 3 nM. In addition, in series [6], the bioavailability was 30.2%. Further, the inhibition constant Ki turned out to be 1670 nM in series [2], 197 nM in series [4] and 10 nM in series [3]. Also, the half-life turned out to be 191 min in series [7] and 29 min in [11]. Moreover, the Vd in series [8] was found to be 3.02 L/kg. For the same compound, in series [9], the Cmax was 560 nM. Further, the Tmax in series [10] is 39.3 min.

In turn, `N#Cc1cccc(-c2nc(Nc3cccnc3)sc2-n2cncn2)c1` came in with a Kb in [1] of 86 nM. Besides, the inhibition constant Ki in series [2] is 2570 nM; in series [4] it was 1530 nM; in [3], 698 nM.

Compound `Cc1cccc(Nc2nc(-c3cccc(C#N)c3)c(-n3ccnc3)s2)n1` came in with a Kb in series [1] of 92 nM. Also, the values for the inhibition constant Ki in series [2], in series [4] and in series [3] were 2700 nM, 8 nM and 44 nM, respectively.

Regarding `N#Cc1cccc(-c2nc(Nc3cnccn3)sc2-n2ccnc2)c1`, the Kb in series [1] stood at 7 nM. Moreover, the results for the Ki in series [2], in series [4] and in series [3] were 349 nM, 46 nM and 11 nM, respectively.

On to `N#Cc1cccc(-c2nc(Nc3cccnc3)sc2-n2ccnc2)c1`, for which, in series [1], the Kb worked out at 92 nM. Besides, the Ki in series [2] is 2700 nM; in series [4], 560 nM; in series [3], 124 nM.

Regarding `N#Cc1cccc(-c2nc(Nc3ccccn3)sc2-n2cncn2)c1`, in series [1], the Kb came to 53 nM. Besides, the Ki came to 2020 nM in [2], 1760 nM in series [4] and 24 nM in series [3].

On to `Cc1cccc(Nc2nc(-c3cccc(C#N)c3)c(-n3cncn3)s2)n1`, for which, in [1], the Kb was 20 nM. Also, the inhibitory constant (Ki) in [2] is > 10000 nM; in series [4], > 10000 nM; in series [3], 37 nM.

With `Cc1cccc(Nc2nc(-c3cccc(C#N)c3)c(-n3ccnc3C)s2)n1`, in series [1], the Kb is 10 nM. Besides, the inhibition constant (Ki) in [2] is 175 nM; in series [4], 224 nM; in series [3], 419 nM.
